Patent US7205387B2, “Recombinant polypeptide useful for neurotrophin receptor mediated gene delivery and as neurotrophin agonist” (Agency for Science, Technology and Research, priority 2003, dated 2007)
Bridge positions count the residues as written; N and C are the ends. Ends that are not written are not given here.

Assays:
Akt = assay: Phospho-Akt immunoblot in PC12 cells; assay type: cell-based, rat; conditions: 5 μM peptide, 20 min
Description: Immunoblotting experiments were conducted to test whether the chimeric polypeptides could, like NGF, induce autophosphorylation of TrkA and activation of its signal transduction pathways. PC12 cells were seeded in 6-well plates at a density of 2×10^6 cells/well and cultured in RPMI 1640 containing 0.5% FBS and 0.25% horse serum for 2 days. The low serum concentrations were necessary to reduce the basal levels of phosphorylation. The medium was refreshed two hours before beginning treatment. The cells were incubated with the polypeptides or NGF in serum-free medium for 15–20 min. The cells were then washed in PBS, lysed, and sonicated. The cell lysates were resolved by SDS-PAGE and transferred to a nitrocellulose membrane for immunoblotting. The primary antibodies used include Phospho-TrkA (Tyr490) antibody, Phospho-p44/p42 MAPK (Thr202/Tyr204) monoclonal antibody, and Phospho-Akt (Ser473) monoclonal antibody, all obtained from Cell Signaling Technology (Beverly, Mass., USA). Colorimetric detection was performed by standard techniques after using horse-radish peroxidase-conjugated secondary antibodies. In some experiments, TrkA tyrosine kinase inhibitors K-252a or AG879 (both from Calbiochem, La Jolla, Calif., USA) were used. In these cases, PC12 cells were incubated with 100 nM K-252a or 10 μM AG879 before addition of polypeptides or NGF.

[1] = test system: lumbar segment of the spinal cord; assay: Gene delivery in vivo, intrathecal injection, lumbar spinal cord; parameters: species or system rat; conditions: 3 μg pCAGluc, PEI600 N/P 5, peptide N/P 5, intralumbar, 3 days
From the text: In vivo gene delivery was studied by intrathecal injections of adult Wistar rats (8 weeks old, 180–200 g). The rats were anesthetized by intraperitoneal injection of sodium pentobarbital. After the skin around L4–L5 was exposed, the gene delivery complex was slowly injected into the subarachnoid space using a syringe. A slight tail movement accompanied correct placement of the needle. After injection, the syringe was left in place for five minutes to limit diffusion caused by backflow pressure. Multiple injections were sometimes required to deliver the full volume of the complex. After injection, the skin was closed with surgical clips and the animals were kept warm until they recovered. […] The lumbar segment of the spinal cord and the lumbar dorsal root ganglia were excised. The tissues were homogenized in 100–400 μl of Reporter Lysis Buffer (Promega) depending on size and subjected to three freeze-thaw cycles. The lysates were centrifuged at 14000 g for 5 min at 4° C. The supernatant was tested for luciferase activity using the Luciferase Assay System (Promega) in a single-tube luminometer (Berthold Lumat LB 9507). The readings were normalized by the total protein content of the lysates, as measured by the DC Protein assay (Bio-Rad).

PC12 cells = assay: PC12 neurite outgrowth assay; assay type: cell-based, rat; conditions: 8 μM, 3 days
Description: Chimeric polypeptides were examined for their ability to induce neurite outgrowth in PC12 cells. Polypeptides in a range of concentrations were added to PC12 cells cultured in serum-enriched RPMI-1640 medium. The cells were incubated for three days and photographed every 24 h.

CTTTHTFVKALTMDGKQAAWRFIRIDTACKKKKKKKKKK (CTTTHTFVKALTMDGKQAAWRFIRIDTACKKKKKKKKKK; disulfide 1-29) [NL4-10K]
activation (phosphorylation) of Akt (Akt): induced activation
transfection in spinal cord near the lumbar injection site relative to 10K control [1]: decreased relative to the 10K control

B1: SPKR4NL1-2: chimeric protein: (SPKR)4 DNA-binding domain, α-helical linker, targeting domain with loops 1 and 2 of NGF (aa 17–67), His10 tag (protein)
chain: MGHHHHHHHHHHSSGHIEGRHMSPKRSPKRSPKRSPKRGGTYLSEDELKAAEAAFKRHNPTGSCSVSVWVGDKTTATDIKGKEVMVLGEVNINNSVFKQYFFETKCRDPNPVDSG
modifications: SPKR4NL1-2
neurite outgrowth (PC12 cells): promotes neurite outgrowth
